Test results from patent publication US10919882B2, “Compounds for use in synthesis of peptidomimetics” (THE FEINSTEIN INSTITUTES FOR MEDICAL RESEARCH, priority 2019, dated 2021).

Assay: Stability of HOBt aza building blocks with Boc, Fmoc or Phth alpha-amino protection
Assay type: physicochemical
Description: Assessing the Compatibility of HOBt Aza Building Blocks in the Presence of Traditional Alpha Amino Protecting Groups (e.g. Phth, Fmoc and Boc) with Other Protecting Synthesis and Stability
The issues with stability were observed when the N-1 is protected with R=Boc or Fmoc and R′═H. This is due to the presence of NH that leads to undesirable intramolecular cyclization and formation oxadiazoles (Future Med. Chem. (2011) 3(9), 1139-1164) Org. Biomol. Chem., 2015, 13, 59-63. Boc and Fmoc form an unwanted side reaction of carboxyanhydride in peptide synthesis with acid halogenation reagent (Acc. Chem. Res. 1996, 29, 268-274; J. Am. Chem. Soc. 1996, 118, 9796-9797) and in azapeptide synthesis with hydrazine component, the oxadiazalone will be formed (Journal of Peptide Science 2013, 19, 725-729).

Isolated Yield and Stability (solid form) (isolated product as solid): Stable white solid
Compound: O=C(On1nnc2ccccc21)N(Cc1ccccc1)N1C(=O)c2ccccc2C1=O
Isolated Yield and Stability (in solution) (in solution / organic solvents, room temperature): Stable in organic solvents such as acetone, dichloromethane, acetonitrile, DMF at room temperature for weeks
